For one data set, the species on record is Homo sapiens. Kind of data set: Selectivity ratio Ki for human CB2 receptor to Ki for human CB1 receptor.
A further data set relates to Rattus norvegicus. Kind of data set: Inhibition of CP-55940-induced hypotension in po dosed anaesthetized rat. The data set is classed as functional. To be noted: read-out: ID50 (the source's name).
Another data set concerns the target Cannabinoid receptor 2 (Homo sapiens, UniProt P34972). Kind of data set: Displacement of [3H]CP-55940 from human CB2 receptor expressed in CHO cells. The data set is classed as cell-based.
Another data set has as its system LLC-PK1. The data set is described as follows: Efflux ratio of permeability in pig LLC-PK1 cells expressing human MDR1 assessed as ratio of bottom to top transport over top to bottom transport. The data set is classed as ADME, cell-based, Sus scrofa.
Data set [1] is described as follows: Lipophilicity log P of compound at pH 7.4 by RP-HPLC analysis. In kind it is physicochemical. The settings on record: buffer.
The next data set addresses Cannabinoid receptor 1 (Homo sapiens, UniProt P21554). The data set is described as follows: biochemical. In kind it is cell-based, CHO.
Data set [2] is described as follows: Terminal half life in non obese human. The data set is classed as ADME, organism-based. To be noted: in vivo, read-out: beta t1/2 (converted).

In general, Ki refers to a dissociation constant, usually derived from enzyme kinetics or from competition with a known ligand. A low value points to a stronger hold on the target. A word on the logP: it is a log measure of how a compound divides between an organic and an aqueous phase.

Each structure is given as a SMILES string.

Cannabinoid receptor 1, sequence (P21554 whole entry): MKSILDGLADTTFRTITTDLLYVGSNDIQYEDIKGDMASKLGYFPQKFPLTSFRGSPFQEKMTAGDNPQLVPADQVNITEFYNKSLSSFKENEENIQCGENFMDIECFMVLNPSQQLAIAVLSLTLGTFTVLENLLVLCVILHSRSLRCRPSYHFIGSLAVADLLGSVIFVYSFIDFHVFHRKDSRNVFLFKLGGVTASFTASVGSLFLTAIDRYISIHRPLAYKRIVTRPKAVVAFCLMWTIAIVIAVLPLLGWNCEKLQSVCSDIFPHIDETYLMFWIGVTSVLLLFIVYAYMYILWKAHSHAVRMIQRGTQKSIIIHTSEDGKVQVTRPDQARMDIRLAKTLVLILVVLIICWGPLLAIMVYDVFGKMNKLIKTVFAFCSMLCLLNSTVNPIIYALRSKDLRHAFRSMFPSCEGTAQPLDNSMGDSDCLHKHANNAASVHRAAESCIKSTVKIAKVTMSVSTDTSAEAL
Cannabinoid receptor 2, sequence (P34972 whole entry): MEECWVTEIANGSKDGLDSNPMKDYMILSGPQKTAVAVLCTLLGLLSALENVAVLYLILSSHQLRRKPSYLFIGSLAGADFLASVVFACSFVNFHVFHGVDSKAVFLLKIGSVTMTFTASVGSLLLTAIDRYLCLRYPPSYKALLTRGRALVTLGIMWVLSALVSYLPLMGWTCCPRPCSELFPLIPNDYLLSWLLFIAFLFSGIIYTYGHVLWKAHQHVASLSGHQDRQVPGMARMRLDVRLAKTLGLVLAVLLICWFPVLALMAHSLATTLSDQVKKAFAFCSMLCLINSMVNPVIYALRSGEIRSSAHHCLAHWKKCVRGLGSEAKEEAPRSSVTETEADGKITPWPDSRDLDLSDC

Take `CS(=O)(=O)c1c(C(=O)NN2CCCCC2)nc(-c2ccc(Cl)cc2Cl)n1-c1ccc(Cl)cc1`: the Ratio IC50 in the data set listed under Homo sapiens was over 840. For the same compound, the ED50 in the data set with Rattus norvegicus was found to be 29 mg/kg. The same compound yielded a Ki on Cannabinoid receptor 2 of over 10 µM. Moreover, in the data set with LLC-PK1, the Ratio came out at 6. In addition, the logP in data set [1] was determined as 3.5.

Take `C[S+]([O-])c1c(C(=O)NN2CCCCC2)nc(-c2ccc(Cl)cc2Cl)n1-c1ccc(Cl)cc1` (single isomer, unassigned; (-)) [listing 1 of 2 here]: in the data set listed under Homo sapiens, the Ratio IC50 is over 50.

For `CSc1c(C(=O)NN2CCCCCC2)nc(-c2ccc(Cl)cc2Cl)n1-c1ccc(Cl)cc1`, the Ratio IC50 in the data set listed under Homo sapiens is 27. In addition, the Ki on Cannabinoid receptor 1 was 0.012 µM; at Cannabinoid receptor 2, 0.325 µM.

For the compound `C[S+]([O-])c1c(C(=O)NN2CCCCC2)nc(-c2ccc(Cl)cc2Cl)n1-c1ccc(Cl)cc1` (single isomer, unassigned; (+)) [listing 1 of 2 here], the Ratio IC50 in the data set filed under Homo sapiens is over 77.

`C[S+]([O-])c1c(C(=O)NN2CCCCC2)nn(-c2ccc(Cl)cc2Cl)c1-c1ccc(Cl)cc1` (stereo not drawn): the Ratio IC50 in the data set listed under Homo sapiens is 20. Also, the results for the Ki at Cannabinoid receptor 1 and at Cannabinoid receptor 2 were 0.02 µM and 0.398 µM, respectively. In addition, the ED50 in the data set on Rattus norvegicus is over 30 mg/kg. The Ratio in the data set on LLC-PK1 turned out to be 8. Also, in data set [1], the logP was 3.7.

`CSc1c(C(=O)NN2CCCC2)nc(-c2ccc(Cl)cc2Cl)n1-c1ccc(Cl)cc1`: the Ratio IC50 in the data set listed under Homo sapiens was over 112. On Cannabinoid receptor 1, the affinity, expressed as Ki, was 0.0089 µM.

With `C[S+]([O-])c1c(C(=O)NN2CCCCC2)nc(-c2ccc(Cl)cc2Cl)n1-c1ccc(Cl)cc1` (stereo in doubt; 12) [listing 1 of 2 here], the Ratio IC50 in the data set listed under Homo sapiens is over 20.

Take `N#Cc1c(C(=O)NN2CCCCC2)nc(-c2ccc(Cl)cc2Cl)n1-c1ccc(Cl)cc1`: the Ratio IC50 in the data set filed under Homo sapiens stood at 53.

As to `O=C(NN1CCCCC1)c1nc(-c2ccc(Cl)cc2Cl)n(-c2ccc(Cl)cc2)c1CO`, the Ratio IC50 in the data set listed under Homo sapiens came to 221. The Ki on Cannabinoid receptor 1 was determined as 0.034 µM; on Cannabinoid receptor 2, 7.5 µM.

Take `C[S+]([O-])c1c(C(=O)NN2CCCCC2)nc(-c2ccc(Cl)cc2Cl)n1-c1ccc(Cl)cc1` (stereo in doubt; 12) [listing 2 of 2 here]: the Ki was 0.049 µM at Cannabinoid receptor 1 and over 1 µM on Cannabinoid receptor 2 (cho). Further, the ED50 with Rattus norvegicus is over 30 mg/kg. In the data set with LLC-PK1, the Ratio worked out at 7.7. For the same compound, in data set [1], the logP was 3.7.

Take `Cc1c(C(=O)NN2CCCCC2)nn(-c2ccc(Cl)cc2Cl)c1-c1ccc(Cl)cc1` [RIMONABANT]: the half-life in data set [2] was 144 h.

With `C[S+]([O-])c1c(C(=O)NN2CCCCC2)nc(-c2ccc(Cl)cc2Cl)n1-c1ccc(Cl)cc1` (single isomer, unassigned; (+)) [listing 2 of 2 here], the Ki was 0.0129 µM at Cannabinoid receptor 1 and over 1 µM on Cannabinoid receptor 2 (cho).

Consider `CSc1c(C(=O)NN2CCCCC2)nn(-c2ccc(Cl)cc2Cl)c1-c1ccc(Cl)cc1`, for which the Ki at Cannabinoid receptor 1 was determined as 0.013 µM; at Cannabinoid receptor 2 it was 0.804 µM. Further, the ED50 with Rattus norvegicus was determined as 1.5 mg/kg.

Take `CSc1c(C(=O)NN2CCCCCC2)nn(-c2ccc(Cl)cc2Cl)c1-c1ccc(Cl)cc1`: the Ratio IC50 in the data set filed under Homo sapiens was 14. For the same compound, the Ki on Cannabinoid receptor 1 turned out to be 0.027 µM; on Cannabinoid receptor 2 it was 0.371 µM.

As to `CSc1c(C(=O)NN2CCCCC2)nc(-c2ccc(Cl)cc2Cl)n1-c1ccc(Cl)cc1`, the Ratio IC50 in the data set listed under Homo sapiens came out at 88. In addition, the Ki amounted to 0.0122 µM at Cannabinoid receptor 1 and 1.07 µM on Cannabinoid receptor 2. Besides, in the data set on Rattus norvegicus, the ED50 came out at 1.9 mg/kg. In addition, in the data set with LLC-PK1, the Ratio is 1.4. The compound further had a logP in data set [1] of 4.8.

With `C[S+]([O-])c1c(C(=O)NN2CCCCC2)nc(-c2ccc(Cl)cc2Cl)n1-c1ccc(Cl)cc1` (single isomer, unassigned; (-)) [listing 2 of 2 here], the figures for the Ki at Cannabinoid receptor 1 and at Cannabinoid receptor 2 were 0.02 µM and over 1 µM, respectively.

With `CCSc1c(C(=O)NN2CCCCC2)nc(-c2ccc(Cl)cc2Cl)n1-c1ccc(Cl)cc1`, the Ratio IC50 in the data set listed under Homo sapiens was over 19. For the same compound, the Ki was 0.051 µM at Cannabinoid receptor 1 and over 1 µM on Cannabinoid receptor 2.

For the compound `Cc1c(C(=O)NN2CCCCC2)nc(-c2ccc(Cl)cc2Cl)n1-c1ccc(Cl)cc1`, the Ratio IC50 in the data set filed under Homo sapiens amounted to 20.

Consider `CSc1c(C(=O)NN2CCCC2)nn(-c2ccc(Cl)cc2Cl)c1-c1ccc(Cl)cc1`, for which, in the data set filed under Homo sapiens, the Ratio IC50 was determined as 211. In addition, the Ki is 0.003 µM at Cannabinoid receptor 1 and 0.634 µM on Cannabinoid receptor 2. Also, the ED50 in the data set on Rattus norvegicus is 1.9 mg/kg. The logP in data set [1] is reported as 4.7.

As to `CCc1c(C(=O)NN2CCCCC2)nc(-c2ccc(Cl)cc2Cl)n1-c1ccc(Cl)cc1`, the Ratio IC50 in the data set filed under Homo sapiens came to 31.

On to `O=C(NN1CCCCC1)c1nc(-c2ccc(Cl)cc2Cl)n(-c2ccc(Cl)cc2)c1I`, for which the Ratio IC50 in the data set filed under Homo sapiens came out at 181. Besides, the Ki stood at 0.01 µM on Cannabinoid receptor 1 and 1.81 µM on Cannabinoid receptor 2.

Values taken from ChEMBL document CHEMBL1157923, “Probing the cannabinoid CB1/CB2 receptor subtype selectivity limits of 1,2-diarylimidazole-4-carboxamides by fine-tuning their 5-substitution pattern” (Bioorg Med Chem Lett, 2010).
